In one assay the test system is p-ERK in NCI-H441 cells (KRAS G12V mutation). Description: Cell p-ERK assay (HTRF) in NCI-H441 cells. The format is cell-based, human. The settings on record: Homo sapiens, NCI-H441, 3 h, NCI-H441 cells, 3 h compound incubation, HTRF p-ERK T202/Y204; read-out: H441 p-ERK IC50. As for the experimental part: AsPC-1 cells were purchased from ATCC, Cat. No. CRL-1682: NCI-H441 cells were purchased from ATCC, Cat. No. HTB-174: RPMI-1640 medium was purchased from Gibco, Cat. No. I1875-093: FBS was purchased from Gibco, Cat. No. 10099-141C: penicillin/streptomycin double-antibiotic solution (PS) was purchased from Gibco, Cat. No. 15140-122: trypsin (containing EDTA) was purchased from Gibco, Cat. No. 25200-072; DMSO was purchased from VWRAMRESCO, Cat. No. 0231-500ML; 96-well cell culture plates were purchased from Corning, Cat. No. 3599: white-bottomed, opaque 96-well plates were purchased from Cisbio, Cat. No. 66PL96025; Advance ERK phospho-T202/Y204 kit was purchased from Cisbio, Cat. No. 64AERPEH; cell counter was purchased from CHEMOMETEC, model: NC-200; microplate reader was purchased from PerkinElmer, model: EnVision.
AsPC-1, a human pancreatic cancer cell strain endogenously containing a KRAS^G12D mutation, was cultured in a complete medium containing RPMI-1640+10% FBS+1% PS. NCI-H441, a human non-small cell lung cancer cell strain endogenously containing a KRAS^G12V mutation, was cultured in a complete medium containing RPMI-1640+10% FBS+1% PS.
The cells were digested with trypsin (containing EDTA), collected in their corresponding complete media, and counted. The density of the cell suspensions was adjusted with their corresponding complete media, and 10000 AsPC-1 cells or 20000 NCI-H441 cells per well were seeded into a 96-well cell culture plate, with the volume of the medium in each well being 80 μL.
The cell culture plate was incubated in an incubator at 37° C. with 5% CO2 overnight. A series of 3.16-fold gradient dilutions of a 1000- compound stock solution were prepared with DMSO, and then diluted 200-fold with the complete medium described above to give 5′ compound stock solutions. On the day after cell seeding, 20 μL of the 5× compound stock solution was added to each cell culture well. As a result, the final concentration of the compound in the cell culture well became 1×, and the DMSO content in the well was 0.1%. In addition to the compound-treated wells described above, cell-containing DMSO control wells were also set. A complete medium containing 0.5% DMSO was added at 20 μL/well. After the mixture was well mixed, the culture plate was incubated in the incubator at 37° C. with 5% CO2 for another 3 h. The medium was then removed from the culture wells, and 50 μL of cell lysis buffer (from Advance ERK phospho-T202,Y204 kit) was added to each well. The mixture was well mixed and incubated for 30 min. Then, 16 μL of the mixture was transferred to a white-bottomed, opaque 96-well assay plate, and separately, 16 μL of cell lysis buffer was added to additional wells (serving as blank wells) in the assay plate. After the transfer was completed, 4 μL of p-ERK HTRF antibody mixture (from Advance ERK phospho-T202/Y204 kit) was added to each well of the assay plate, followed by a 4-hour incubation. The HTRF signal values (RLU) were then measured using a microplate reader, and the inhibition rate of the compound against p-ERK levels was calculated as follows: IR (%)=(RLUDMSO−RLUcompound)/(RLUDMSO−RLUblank)×100%, where RLUDMSO is the average HTRF signal value from the DMSO control well samples, RLUblank is the average HTRF signal value from the blank well samples, and RLUcompound is the HTRF signal value from the compound-treated well samples. Using an XLfit software, the IR (%) values were plotted against the logarithm of the compound concentrations, and the dose-response curves were fitted using the four-parameter method to calculate the IC50 values.
In general terms: TR-FRET usually uses a lanthanide donor and a delayed reading to cut background.
In general, IC50 refers to the midpoint of a concentration-inhibition curve. On to `CCn1c(-c2cc(C#CCN3CCN(C)S(=O)(=O)CC3)cnc2[C@H](C)OC)c2c3cc(ccc31)-c1csc(n1)C[C@H](Nc1nnc3cc(C)ccn13)C(=O)N1CCC[C@H](N1)C(=O)OCC(C)(C)C2` (atropisomer, axis not shown; (Ra)) [Compound Z1027, (6^3S,4S,Z)-1^1-ethyl-1^2-(Ra)-(2-((S)-1-methoxyethyl)-5-(3-(2-methyl-1,1-dioxido-1,2,5-thiadiazepan-5-yl)prop-1-yn-1-yl)pyridin-3-yl)-10,10-dimethyl-4-((7-methyl-[1,2,4]triazolo[4,3-a]pyridin-3-yl)amino)-6^1,6^2,6^3,6^4,6^5,6^6-hexahydro-1^1H-8-oxa-2(4,2)-thiazola-1(5,3)-indola-6(1,3)-pyridazinacycloundecaphane-5,7-dione], for which the IC50 was determined as 1.54 nM.
On to `CCn1c(-c2cc(N3CCN(CCS(C)(=O)=O)CC3)cnc2[C@H](C)OC)c2c3cc(ccc31)-c1csc(n1)C[C@H](NC(=O)[C@H]1[C@H](C)[C@@H]1C)C(=O)N1CCC[C@H](N1)C(=O)OCC1(CC1)C2` (atropisomer, axis not shown; (Sa)) [Compound Z377, (1r,2R,3S)—N-((3′S,4′S,Z)-1′-ethyl-(Sa)-2′-(2-((S)-1-methoxyethyl)-5-(4-(2-(methylsulfonyl)ethyl)piperazin-1-yl)pyridin-3-yl)-5′,7′-dioxospiro[cyclopropane-1,10′-8-oxa-2(4,2)-thiazola-1(5,3)-indola-6(1,3)-pyridazinacycloundecaphan]-4′-yl)-2,3-dimethylcyclopropane-1-carboxamide], for which the 50% inhibitory concentration (IC50) turned out to be 87.8 nM.
For the compound `CCn1c(-c2cc(C#CCN3CCCOCC3)cnc2[C@H](C)OC)c2c3cc(ccc31)-c1csc(n1)C[C@H](NC(=O)CC(C)(C)C)C(=O)N1CCC[C@H](N1)C(=O)OCC(C)(C)C2` (atropisomer, axis not shown; (Ra)) [Compound Z798, N-((6^3S,4S,Z)—(Ra)-1^2-(5-(3-(1,4-oxazepan-4-yl)propyn-1-yl)-2-((S)-1-methoxyethyl)pyridin-3-yl)-1^1ethyl-10,10-dimethyl-5,7-dioxo-6^1,6^2,6^3,6^4,6^5,6^6-hexahydro-1^1H-8-oxa-2(4,2)-thiazola-1(5,3)-indola-6(1,3)-pyridazinacycloundecaphane-4-yl)-3,3-dimethylbutanamide], the concentration for half-maximal inhibition (IC50) amounted to 3.89 nM.
Take `CCn1c(-c2cc(C3(C(=O)N4CCN(C)CC4)CC3)cnc2[C@H](C)OC)c2c3cc(ccc31)-c1csc(n1)C[C@H](NC(=O)[C@H]1[C@H](C)[C@@H]1C)C(=O)N1CCC[C@H](N1)C(=O)OCC1(CC1)C2` [Compound Z347, (1r,2R,3b)-N-((3′S,4′S,Z)-1′-ethyl-2′-(2-(1-methoxyethyl)-5-(1-(4-methylpiperazine-1-carbonyl)cyclopropyl)pyridin-3-yl)-5′,7′-dioxospiro[cyclopropane-1,10′-8-oxa-2(4,2)-thiazola-1(5,3)-indola-6(1,3)-pyridazinacycloundecaphan]-4-yl)-2,3-dimethylcyclopropane-1-carboxamide]: the IC50 turned out to be 152 nM.
Regarding `CCn1c(-c2cc(C#CCN3CCN(C(C)=O)CC3)cnc2[C@H](C)OC)c2c3cc(ccc31)-c1csc(n1)C[C@H](Nc1nnc3cc(C)ccn13)C(=O)N1CCC[C@H](N1)C(=O)OCC(C)(C)C2` (atropisomer, axis not shown; (Ra)) [Compound Z981], the IC50 turned out to be 2.17 nM.
`CCn1c(-c2cc(N3CCN(c4ccc(C)cc4)CC3)cnc2[C@H](C)OC)c2c3cc(ccc31)-c1csc(n1)C[C@H](NC(=O)[C@H]1[C@H](C)[C@@H]1C)C(=O)N1CCC[C@H](N1)C(=O)OCC1(CC1)C2` [Compound Z461, (1r,2R,3S)—N-((3′S,4′S,Z)-1′-ethyl-2′-(2-((S)-1-methoxyethyl)-5-(4-(p-tolyl)piperazin-1-yl)pyridin-3-yl)-5′,7′-dioxospiro[cyclopropane-1,10′-8-oxa-2(4,2)-thiazola-1(5,3)-indola-6(1,3)-pyridazinacycloundecaphan]-4′-yl)-2,3-dimethylcyclopropane-1-carboxamide]: the IC50 is 93 nM.
For the compound `CCn1c(-c2cc(C#CCN3CCCOCC3)cnc2[C@H](C)OC)c2c3cc(ccc31)-c1csc(n1)C[C@H](NC(=O)[C@H]1[C@H](C)[C@@H]1C)C(=O)N1CCC[C@H](N1)C(=O)OCC(C)(C)C2` (atropisomer, axis not shown; (Sa)) [Compound Z547, (1r,2R,3S)—N-((6^3S,4S,Z)—(Sa)-1′-(5-(3-(1,4-oxazepan-4-yl)prop-1-yn-1-yl)-2-((S)-1-methoxyethyl)pyridin-3-yl)-1′-ethyl-10,10-dimethyl-5,7-dioxo-6^1,6^2,6^3,6^4,6^5,6^6-hexahydro-1^1H-8-oxa-2(4,2)-thiazola-1(5,3)-indola-6(1,3)-pyridazinacycloundecaphane-4-yl)-2,3-dimethylcyclopropane-1-carboxamide], the IC50 was 78.1 nM.
`CCn1c(-c2cc(C#CCN3CCCOCC3)cnc2[C@H](C)OC)c2c3cc(ccc31)-c1csc(n1)C[C@H](NC(=O)[C@H](C(C)C)N(C)S(C)(=O)=NC)C(=O)N1CCC[C@H](N1)C(=O)OCC(C)(C)C2` (mixture of isomers) [Compound Z912, (2S)—N-((6^3S,4S,Z)-1^2-(5-(3-(1,4-oxazepan-4-yl)prop-1-yn-1-yl)-2-((5)-1-methoxyethyl)pyridin-3-yl)-1^1-ethyl-10,10-dimethyl-5,7-dioxo-6^1,6^2,6^3,6^4,6^5,6^6-hexahydro-1^1H-8-oxa-2(4.2)-thiazola-1(5,3)-indola-6(1,3)-pyridazinacycloundecaphane-4-yl)-2-(N,N-dimethylmethylsulfonimidoyl)-3-methylbutanamide]: the IC50 came out at 1.83 nM.

The same assay, now with this note: NCI-H441 cells, 3 h compound incubation, HTRF p-ERK T202/Y204; read-out: H441 p-ERK IC50.
As for `CCn1c(-c2cc(C#CCN3CCCOCC3)cnc2[C@H](C)OC)c2c3cc(ccc31)-c1csc(n1)C[C@H](Nc1nnc3cc(Br)ccn13)C(=O)N1CCC[C@H](N1)C(=O)OCC(C)(C)C2` [Compound Z960, (6-S,4S,Z)—(R4)-1^2-(5-(3-(1,4-oxazepan-4-yl)prop-1-yn-1-yl)-2-((S)-1-methoxyethyl)pyridin-3-yl)-4-((7-bromo-[1,2,4]triazolo[4,3-a]pyridin-3-yl)amino)-1^1-ethyl-10,10-dimethyl-6^1,6^2,6^3,6^4,6^5,6^6-hexahydro-1^1H-8-oxa-2(4,2)-thiazola-1(5,3)-indola-6(1,3)-pyridazinacycloundecaphane-5,7-dione], the half-inhibitory concentration (IC50) came out at 5.46 nM.
For `CCn1c(-c2cc(C#CCN3CC4CCC(C3)N4C(C)=O)cnc2[C@H](C)OC)c2c3cc(ccc31)-c1csc(n1)C[C@H](Nc1nnc3cc(C)ccn13)C(=O)N1CCC[C@H](N1)C(=O)OCC(C)(C)C2` (atropisomer, axis not shown; (Ra)) [Compound Z1014, (6^3S,4S,Z)-1^2-(5-(3-(8-acetyl-3,8-diazabicyclo[3.2.1]octan-3-yl)prop-1-yn-1-yl)-(Ra)-2-((S)-1-methoxyethyl)pyridin-3-yl)-1^1-ethyl-10,10-dimethyl-4-((7-methyl-[1,2,4]triazolo[4,3-a]pyridin-3-yl)amino)-6^1,6^2,6^3,6^4,6^5,6^6-hexahydro-1^1H-8-oxa-2(4,2)-thiazola-1(5,3)-indola-6(1,3)-pyridazinacycloundecaphane-5,7-dione], the IC50 was 3.35 nM.

(Values after patent publication US20260234165A1, “MACROCYCLIC COMPOUNDS, PREPARATION METHOD THEREFOR, AND USE THEREOF” (GENFLEET THERAPEUTICS (SHANGHAI) INC., priority 2004, published 2026).)
